Literature values, collected in patent publication US6515132B2, “Process for the preparation of rosiglitazone maleate” (priority 2000, dated 2003).

details: dose given in diet; comparative activity data for thiazolidinediones being clinically progressed

| SMILES | Minimum effective dose |
| --- | --- |
| O=C1NC(=O)C(Cc2ccc3c(c2)CC[C@H](Cc2ccccc2)O3)S1 (stereo partly drawn) [Englitazone] | 200 μmol/kg diet |
| CN(CCOc1ccc(CC2SC(=O)NC2=O)cc1)c1ccccn1.O=C(O)/C=C\C(=O)O (stereo not drawn) [Rosiglitazone maleate, 5-[4-[2-(N-methyl-N-(2-pyridyl)amino)ethoxy]benzyl]thiazolidine-2,4-dione maleate] | 3 μmol/kg diet |
| CN(CCOc1ccc(CC2SC(=O)NC2=O)cc1)c1ccccn1 (stereo not drawn) [Rosiglitazone, 5-[4-[2-(N-methyl-N-(2-pyridyl)amino)ethoxy]benzyl]thiazolidine-2,4-dione] | 3 μmol/kg diet |
